In PubChem BioAssay AID330 (DTP/NCI, 2004):
Values joined by “and” are separate entries in the source; they are usually repeats but may differ in a detail not shown here. Identical values can stand only once. Inconclusive results and toxic doses are left out. Square brackets hold non-standard residues; d marks the D form. Peptide text beside a SMILES is read from it. ξ: configuration not given here. ξY = NC(Cc1ccc(O)cc1)C(=O)O

System: P388 leukemia ip, CD2F1 mice, survival T/C
Assay: NCI In Vivo Anticancer Drug Screen. Data for tumor model P388 Leukemia (intraperitoneal) in CD2F1 (CDF1) mice
Conditions: endpoint: median survival time, higher = longer survival
Summary of the method: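 Mice carrying the transplanted tumor received test compound or vehicle. Survival was recorded in each group, and the value is the treated-group measurement divided by that of the vehicle-treated control group.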

[1] = dose: 50.0 mg/kg/injection, schedule: Q01DX009 (ip), vehicle: Klucel (hydroxypropylcellulose) (HPC)
[2] = dose: 100.0 mg/kg/injection, schedule: Q01DX009 (ip), vehicle: Klucel (hydroxypropylcellulose) (HPC)
[3] = dose: 200.0 mg/kg/injection, schedule: Q01DX009 (ip), vehicle: Klucel (hydroxypropylcellulose) (HPC)
[4] = dose: 25.0 mg/kg/injection, schedule: Q01DX009 (ip), vehicle: other
[5] = dose: 50.0 mg/kg/injection, schedule: Q01DX009 (ip), vehicle: other
[6] = dose: 100.0 mg/kg/injection, schedule: Q01DX009 (ip), vehicle: other
[7] = dose: 60.0 mg/kg/injection, schedule: Q01DX005 (ip), vehicle: Klucel (hydroxypropylcellulose) (HPC)
[8] = dose: 120.0 mg/kg/injection, schedule: Q01DX005 (ip), vehicle: Klucel (hydroxypropylcellulose) (HPC)
[9] = dose: 240.0 mg/kg/injection, schedule: Q01DX005 (ip), vehicle: Klucel (hydroxypropylcellulose) (HPC)
[10] = dose: 100.0 mg/kg/injection, schedule: Q01DX009 (ip), vehicle: saline with Tween-80
[11] = dose: 200.0 mg/kg/injection, schedule: Q01DX009 (ip), vehicle: saline with Tween-80
[12] = dose: 400.0 mg/kg/injection, schedule: Q01DX009 (ip), vehicle: saline with Tween-80
[13] = dose: 100.0 mg/kg/injection, schedule: Q01DX009 (ip), vehicle: saline
[14] = dose: 200.0 mg/kg/injection, schedule: Q01DX009 (ip), vehicle: saline

SMILES: C[C@@H](CN1CC(=O)NC(=O)C1)N1CC(=O)NC(=O)C1
- T/C (dose: 0.06 mg/kg/injection, schedule: Q01DX009 (ip), vehicle: Klucel (hydroxypropylcellulose) (HPC)): 108 % of control
- T/C (dose: 0.12 mg/kg/injection, schedule: Q01DX009 (ip), vehicle: Klucel (hydroxypropylcellulose) (HPC)): 101 % of control
- T/C (dose: 0.25 mg/kg/injection, schedule: Q01DX009 (ip), vehicle: Klucel (hydroxypropylcellulose) (HPC)): 111 % of control
- T/C (dose: 0.5 mg/kg/injection, schedule: Q01DX009 (ip), vehicle: Klucel (hydroxypropylcellulose) (HPC)): 115 % of control
- T/C (dose: 1.0 mg/kg/injection, schedule: Q01DX009 (ip), vehicle: Klucel (hydroxypropylcellulose) (HPC)): 121 % of control
- T/C (dose: 4.0 mg/kg/injection, schedule: Q01DX009 (ip), vehicle: Klucel (hydroxypropylcellulose) (HPC)): 154 % of control
- T/C (dose: 8.0 mg/kg/injection, schedule: Q01DX009 (ip), vehicle: Klucel (hydroxypropylcellulose) (HPC)): 159 % of control
- T/C (dose: 16.0 mg/kg/injection, schedule: Q01DX005 (iv), vehicle: suspension in saline): 117 % of control
- T/C (dose: 16.0 mg/kg/injection, schedule: Q01DX009 (ip), vehicle: Klucel (hydroxypropylcellulose) (HPC)): 187 % of control
- T/C (dose: 25.0 mg/kg/injection, schedule: Q01DX009 (ip), vehicle: Klucel (hydroxypropylcellulose) (HPC)): 178 % of control
- T/C (dose: 32.0 mg/kg/injection, schedule: Q01DX005 (iv), vehicle: suspension in saline): 119 % of control
- T/C (dose: 32.0 mg/kg/injection, schedule: Q01DX009 (ip), vehicle: Klucel (hydroxypropylcellulose) (HPC)): 218 % of control
- T/C [1]: 166 % of control and 221 % of control
- T/C (dose: 64.0 mg/kg/injection, schedule: Q01DX009 (ip), vehicle: Klucel (hydroxypropylcellulose) (HPC)): 218 % of control
- T/C [2]: 200 % of control
- T/C (dose: 128.0 mg/kg/injection, schedule: Q01DX005 (ip), vehicle: suspension in saline): 161 % of control and 177 % of control
- T/C (dose: 128.0 mg/kg/injection, schedule: Q01DX009 (ip), vehicle: Klucel (hydroxypropylcellulose) (HPC)): 229 % of control
- T/C [3]: 113 % of control and 92 % of control
- T/C (dose: 256.0 mg/kg/injection, schedule: Q01DX001 (ip), vehicle: Klucel (hydroxypropylcellulose) (HPC)): 97 % of control
- T/C (dose: 256.0 mg/kg/injection, schedule: Q01DX005 (ip), vehicle: suspension in saline): 194 % of control and 208 % of control
- T/C (dose: 256.0 mg/kg/injection, schedule: Q01DX005 (iv), vehicle: suspension in saline): 171 % of control and 180 % of control
- T/C (dose: 400.0 mg/kg/injection, schedule: Q01DX009 (ip), vehicle: Klucel (hydroxypropylcellulose) (HPC)): 92 % of control
- T/C (dose: 512.0 mg/kg/injection, schedule: Q01DX001 (ip), vehicle: Klucel (hydroxypropylcellulose) (HPC)): 122 % of control
- T/C (dose: 512.0 mg/kg/injection, schedule: Q01DX005 (ip), vehicle: suspension in saline): 177 % of control
- T/C (dose: 512.0 mg/kg/injection, schedule: Q01DX005 (iv), vehicle: suspension in saline): 171 % of control
- T/C (dose: 600.0 mg/kg/injection, schedule: Q04DX003 (ip), vehicle: saline): 205 % of control
- T/C (dose: 2048.0 mg/kg/injection, schedule: Q01DX001 (ip), vehicle: Klucel (hydroxypropylcellulose) (HPC)): 159 % of control

SMILES: O=C1Oc2ccccc2OC1c1ccccc1 (stereo not given)
- T/C [1]: 102 % of control
- T/C [2]: 106 % of control
- T/C [3]: 97 % of control

SMILES: COc1ccc(OC)c(CC(C(C)=O)C(C)=O)c1
- T/C [4]: 100 % of control
- T/C [5]: 105 % of control
- T/C [6]: 106 % of control
- T/C (dose: 200.0 mg/kg/injection, schedule: Q01DX009 (ip), vehicle: other): 108 % of control
- T/C (dose: 400.0 mg/kg/injection, schedule: Q01DX009 (ip), vehicle: other): 116 % of control

SMILES: CNC(=O)OCc1c(COC(=O)NC)c(C)n(-c2ccc(Cl)c(Cl)c2)c1C
- T/C (dose: 12.5 mg/kg/injection, schedule: Q01DX009 (ip), vehicle: saline): 154 % of control and 160 % of control
- T/C (dose: 25.0 mg/kg/injection, schedule: Q01DX009 (ip), vehicle: saline): 165 % of control

SMILES: O=P(CCCCBr)(NCc1ccccc1)c1ccccc1 (stereo not given)
- T/C (dose: 100.0 mg/kg/injection, schedule: Q04DX003 (ip), vehicle: Klucel (hydroxypropylcellulose) (HPC)): 105 % of control
- T/C (dose: 200.0 mg/kg/injection, schedule: Q04DX003 (ip), vehicle: Klucel (hydroxypropylcellulose) (HPC)): 117 % of control

SMILES: CCOC(=O)C(C)Oc1ccc(Cl)cc1 (stereo not given)
- T/C (dose: 25.0 mg/kg/injection, schedule: Q01DX009 (ip), vehicle: water): 99 % of control
- T/C (dose: 50.0 mg/kg/injection, schedule: Q01DX009 (ip), vehicle: water): 102 % of control
- T/C (dose: 100.0 mg/kg/injection, schedule: Q01DX009 (ip), vehicle: water): 102 % of control
- T/C (dose: 200.0 mg/kg/injection, schedule: Q01DX009 (ip), vehicle: water): 98 % of control
- T/C (dose: 400.0 mg/kg/injection, schedule: Q01DX009 (ip), vehicle: water): 107 % of control

SMILES: N#CC1C2C1C1C=CC2n2c(=O)n(-c3ccccc3)c(=O)n21 (stereo not given)
- T/C (dose: 6.25 mg/kg/injection, schedule: Q01DX005 (ip), vehicle: Klucel (hydroxypropylcellulose) (HPC)): 99 % of control
- T/C (dose: 12.5 mg/kg/injection, schedule: Q01DX005 (ip), vehicle: Klucel (hydroxypropylcellulose) (HPC)): 102 % of control
- T/C (dose: 25.0 mg/kg/injection, schedule: Q01DX005 (ip), vehicle: Klucel (hydroxypropylcellulose) (HPC)): 108 % of control and 98 % of control
- T/C (dose: 50.0 mg/kg/injection, schedule: Q01DX005 (ip), vehicle: Klucel (hydroxypropylcellulose) (HPC)): 99 % of control and 111 % of control

SMILES: CN1C(=O)c2ccccc2CC12c1ccccc1C(=O)N2C (stereo not given)
- T/C (dose: 12.5 mg/kg/injection, schedule: Q01DX005 (ip), vehicle: saline with Tween-80): 94 % of control
- T/C (dose: 25.0 mg/kg/injection, schedule: Q01DX005 (ip), vehicle: saline with Tween-80): 90 % of control
- T/C (dose: 50.0 mg/kg/injection, schedule: Q01DX005 (ip), vehicle: saline with Tween-80): 108 % of control

SMILES: O=C1OC2(C=C(O)C1=O)CCCCC2
- T/C [7]: 106 % of control
- T/C [8]: 107 % of control
- T/C [9]: 116 % of control

SMILES: Cc1ccc(-n2cnc3sc4c(c3c2=O)CCCC4)cc1
- T/C [7]: 100 % of control
- T/C [8]: 89 % of control
- T/C [9]: 90 % of control

SMILES: CN(C)S(=O)(=O)c1ncnc2nc[nH]c12
- T/C [10]: 90 % of control
- T/C (dose: 100.0 mg/kg/injection, schedule: Q04DX003 (ip), vehicle: saline sonified): 100 % of control
- T/C [11]: 90 % of control
- T/C (dose: 200.0 mg/kg/injection, schedule: Q04DX003 (ip), vehicle: saline sonified): 91 % of control
- T/C [12]: 100 % of control
- T/C (dose: 400.0 mg/kg/injection, schedule: Q04DX003 (ip), vehicle: saline sonified): 91 % of control

SMILES: Cc1ccc(SCC(=O)O)c(C)c1
- T/C (dose: 50.0 mg/kg/injection, schedule: Q01DX009 (ip), vehicle: saline with Tween-80): 88 % of control
- T/C [10]: 88 % of control
- T/C [11]: 94 % of control
- T/C [12]: 103 % of control

SMILES: O=S(=O)(O)CCCBr
- T/C [10]: 100 % of control
- T/C [11]: 104 % of control
- T/C [12]: 95 % of control

SMILES: CC(O)CCCC(C)O (stereo not given)
- T/C (dose: 50.0 mg/kg/injection, schedule: Q01DX009 (ip), vehicle: saline): 102 % of control
- T/C [13]: 112 % of control
- T/C [14]: 109 % of control

SMILES: NCC(=O)NC(Cc1ccc(O)cc1)C(=O)O (stereo not given) (H-Gly-[ξY]-OH)
- T/C [13]: 113 % of control
- T/C (dose: 100.0 mg/kg/injection, schedule: Q04DX003 (ip), vehicle: saline): 98 % of control
- T/C [14]: 101 % of control
- T/C (dose: 200.0 mg/kg/injection, schedule: Q04DX003 (ip), vehicle: saline): 105 % of control
- T/C (dose: 400.0 mg/kg/injection, schedule: Q01DX009 (ip), vehicle: saline): 105 % of control
- T/C (dose: 400.0 mg/kg/injection, schedule: Q04DX003 (ip), vehicle: saline): 104 % of control

SMILES: CCOC(=O)/C=C/CI
- T/C [4]: 105 % of control and 98 % of control
- T/C [5]: 114 % of control and 120 % of control and 97 % of control
- T/C [6]: 117 % of control and 97 % of control

SMILES: COC(=O)c1cc(-c2ccc3ccccc3c2)[nH]c(=O)c1C#N
- T/C (dose: 30.0 mg/kg/injection, schedule: Q01DX005 (ip), vehicle: saline with Tween-80): 100 % of control
- T/C (dose: 60.0 mg/kg/injection, schedule: Q01DX005 (ip), vehicle: saline with Tween-80): 91 % of control and 92 % of control
- T/C (dose: 120.0 mg/kg/injection, schedule: Q01DX005 (ip), vehicle: saline with Tween-80): 96 % of control
